Assay results: patent US9486502B2, “Methods of administering interferon gamma to absorb fluid from the subretinal space” (The United States of America, as represented by the …, priority 2008, dated 2016)

Experiments:
Format in all cases: cell-based, human
hfRPE monolayers [1] = assay: fluid transport (JV, TEP, RT) across hfRPE monolayers in modified Üssing chamber; settings: for effect on JV after P38 MAPK inhibitor: CFTR inhibitor added to basal bath after P38 MAPK inhibitor
Source text: Confluent monolayers of hfRPE cultured on transwells were mounted in a modified Üssing chamber and transepithelial water flow measurements (JV) were made with a capacitance probe technique as described previously in Maminishkis, A., et al., Invest Ophthalmol Vis Sci, 2006, 47, 3612-3624; Shi, G., et al., Invest Ophthalmol Vis Sci, 2008, 49, 4620-4630; Edelman, J. L., et al., Invest Ophthalmol Vis Sci, 1991, 32, 3033-3040; Jiang, C., et al., Science, 1993, 262, 424-427; and Maminishkis, A., et al., Invest Ophthalmol Vis Sci, 2002, 43, 3555-3566, each incorporated herein by reference in its entirety.
Tissue viability was ascertained by recording transepithelial potential (TEP) and total tissue resistance (RT). It should be noted that the solution composition changes in this chamber were relatively slow (≈1-2 chamber volumes per minute) and the data sampling rate was once per minute, more than two orders of magnitude slower than the sampling rate in the electrophysiology chamber (see below). Therefore it was not possible to record fast changes, in seconds or minutes, in JV, TEP, or RT. After addition of IFNγ to the apical or basal baths, steady-state JV, TEP, and RT were recorded for 20-30 minutes. In control experiments, successive additions of IFNγ were made to test for the repeatability and reversibility of responses. To block IFNγ effects, RPE cells were incubated for 30-60 minutes with a blocking antibody against IFNγ R1, JAK inhibitor I, PKA inhibitors (H-89, EMD Biosciences; RP-8-Br-cAMPS, Sigma-Aldrich), nitric oxide synthase inhibitor (aminoguanidine hydrochloride, Sigma-Aldrich), P38 MAPK inhibitors (SB203580 or SB20290), or CHX. Other components of this signaling pathway were studied using P38 MAPK inhibitors (SB203580 and SB202190). Relatively specific Cl channel inhibitors, CFTRinh-172 or DIDS (EMD Biosciences, La Jolla, Calif.), were used to block cAMP or Ca^2+-activated Cl channels; experiments with CFTRinh-172 were performed as described in Muanprasat, C., et al., J Gen Physiol, 2004, 124, 125-137, incorporated herein by reference in its entirety. In chronic experiments, paired hfRPE tissues with matched RT values were incubated for 4-24 hours with IFNγ or CHX. The subsequent changes in JV, RT, and TEP were measured in Ringer's solution or serum free cell culture media as previously described in Shi, G., et al., Invest Ophthalmol Vis Sci, 2008 and Maminishkis, A., et al., Invest Ophthalmol Vis Sci, 2006, 47, 3612-3624, each incorporated herein by reference in its entirety. Intracellular levels of NO were elevated with 1-Hydroxy-2-oxo-3-(3-aminopropyl)-3-isopropyl-1-triazene (NOC-5, Enzo Life Sciences, Plymouth, Pa.). 8-Br-cGMP was purchased from Sigma-Aldrich.

hfRPE monolayers [2] = assay: electrophysiology of hfRPE monolayers (TEP, RT, VA, VB, RA/RB)
Source text: Equivalent circuit analysis and electrophysiological methods have been previously described in Quinn, R. H., et al., Invest Ophthalmol Vis Sci, 1992, 33, 3513-3527; Joseph D. P., et al., J Physiol, 1991, 435, 439-463; and Maminishkis, A., et al., 2006, Ophthalmol Vis Sci, 47, 3612-3624each incorporated herein by reference in its entirety.
Briefly, confluent monolayers of cultured hfRPE were mounted on a nylon mesh support and clamped into a modified Üssing chamber that allowed the rapid exchange of Ringer's solution (≈10 chamber volumes per minute) and the measurement of fast electrical changes in seconds. The electrical connections to the apical and basal chambers were made with Ringer-agar bridges in series with calomel electrodes. Intracellular potentials were recorded with conventional microelectrodes, back-filled with 150 mM KCl, with resistances of 80 to 200 Ma The apical and basolateral membrane potentials (VA and VB) are calculated as the voltage differences between the intracellular microelectrode and the apical and basal bath electrodes, respectively. The resistances of the apical and basolateral membranes were designated RA and RB, respectively, and the transepithelial potential (TEP=VB-VA) is the voltage difference between the apical and basal bath electrodes. Epithelial resistance parameters were obtained by passing 4-μA bipolar current pulses (i) using Ag—AgCl electrodes, one located in the apical chamber and the other located in the basal chamber. The total transepithelial resistance (Rt) is calculated from the current-induced changes in TEP (Rt=ΔTEP/i). The apparent membrane resistance ratio (RA/RB) is calculated from the ratio of change in VA to change in VB (RA/RB=ΔVA/ΔVB).
The control Ringer's solution for measurements of TEP and Rt in culture hfRPE contained 116 mM NaCl, 5 mM KCl, 26.2 mM NaHCO3, 1 mM NaH2PO4, 1 mM Mg Cl2, 1.8 mM CaCl2, 10 mM glucose, and 2 mM Taurine. The osmolarity of control Ringer's solution was 295 mOsm. The solutions were maintained at 35° C. and a pH of 7.4, and were bubbled with 10% O2, 5% CO2 and 85% N2. 8-Bromo-cAMP (or Dibutyryl cAMP), 8-Br-cGMP, and forskolin were obtained from Sigma-Aldrich.

hfRPE cells = assay: immunoblotting of JAK-STAT / MAP kinase signalling proteins in hfRPE; settings: 4 hours
Protocol: Immunoblotting was performed as previously described in Li, R. et al., 2007, Invest Ophthalmol Vis Sci, 48, 5722-5732, incorporated by reference in its entirety herein. Primary cultures of hfRPE and native human adult RPE cells were lysed using RIPA buffer (Sigma-Aldrich) supplemented with proteinase inhibitor cocktail (Roche). Total protein in the supernatant was measured (BCA™ protein assay, Pierce Biotechnology) and 20 µg of protein from cell lysate supernatants was electrophoresed on a 4-12% gradient Bis-Tris NuPAGE gel (Invitrogen) under reduced or non-reduced conditions. Resolved proteins were transferred to nitrocellulose membranes (membranes and XCell II™ Blot Module, Invitrogen).
The membranes were incubated with mouse anti-human IFNγ R1 monoclonal antibody (R&D Systems), anti-human IFNγ R2 (Santa Cruz Biotechnology), anti-human IFNAR1, anti-human IFNAR2 (Abcam), anti-IRF1, anti-IRF2, anti-IRF8 (Santa Cruz Biotechnology) or anti-CFTR antibody 217 (Cystic Fibrosis Foundation Therapeutics Inc., Bethesda, Md.), after blocking non-specific binding ((StartingBlock™ T20 (TBS), Pierce Biotechnology). Membranes were then incubated with horseradish peroxidase (HRP) conjugated secondary antibody (Pierce Biotechnology) and visualized using Supersignal® West Dura Extended Duration Substrate (Pierce Biotechnology) and imaged using an Autochemie™ system (UVP, Upland, Calif.). The antibody-specific bands for IRF-1, IRF-2, ICSBP (IRF-8) and GAPDH were around 91 kDa, […], respectively.
For phosphorylation studies, cells were starved for 24 hours in serum-free medium (“SFM,” MEM-α modification medium containing non-essential amino acids and Glutamine-Penicillin-Streptomycin). Cells were treated with IFNγ (5-50 ng/ml) in SFM at various time points at 37° C. and lysed with RIPA buffer supplemented with proteinase inhibitor cocktail (Roche) and Halt™ phosphatase inhibitor cocktail (Pierce Biotechnology). 40 μg of protein was electrophoresed. As in the immunoblotting experiments described above, except that the membranes were incubated with anti-phospho-p38 MAP kinase (Thr180/Tyr182), anti-p38 MAP kinase, anti-phospho-Stat1 (Tyr701), anti-phospho-Stat1 (Ser727) or anti-Stat1 antibodies, respectively (each from Cell signaling Technology, Danvers, Mass.). The antibody-specific bands for STAT1/phospho-STAT1 (Tyr701) were around 84 kDa. GAPDH was blotted together with anti-GAPDH antibody (Abcam) and used as loading control. Cyclohexamide (“CHX”; Sigma-Aldrich), a protein synthesis inhibitor, was used at 62 μM.
For CFTR immunoblotting analysis, confluent monolayers of hfRPE were homogenized on ice in isolation solution (250 mM Sucrose, 10 mM Tris-HCl, 10 mM MgCl2, 1 mM CaCl2, pH 7.4) supplemented with Halt™ protease inhibitor cocktail, EDTA-free. Nuclei and intact cells were removed with centrifugation (900×g for 10 minutes at 4° C., followed by centrifugation at 10,000×g for 5 minutes). Crude plasma membrane proteins were collected after centrifugation at 100,000×g for 1 hour at 4° C.

[3] = CFTRinh−172 basal bath after IFNγ

Compound: Nc1nc2c(nc(Br)n2[C@@H]2O[C@@H]3COP(=O)(O)O[C@H]3[C@H]2O)c(=O)[nH]1 [8-Br-cGMP]
- JV after 8-Br-cGMP (hfRPE monolayers [1]; 100 μM both baths, FIG. 21, from 6.0): 19.5 μl·cm^−2·hr^−1
- Jv after 8-Br-cGMP (hfRPE monolayers [1]; four experiments, from 7.4±1.1): 15.8±1.6 μl·cm^−2·hr^−1

Compound: O=C(O)c1ccc(/C=C2\SC(=S)N(c3cccc(C(F)(F)F)c3)C2=O)cc1 [CFTRinh−172]
- effect on cAMP-induced electrical changes (hfRPE monolayers [2]; CFTRinh−172): blocked
- effect on RA/RB (hfRPE monolayers [2]; [3]): slight decrease
- effect on RT (hfRPE monolayers [2]; [3]): increased
- effect on TEP (hfRPE monolayers [2]; [3]): decreased
- effect on both membrane potentials (hfRPE monolayers [2]; [3]): hyperpolarize
- effect on NOC-5 induced increase in Jv (hfRPE monolayers [1]; CFTR inhibitor 5 μM basal bath, NOC-5 250 μM, n=3): blocked
- effect on IFNγ-induced fluid transport after H-89 (hfRPE monolayers [1]; CFTR inhibitor added after H-89): no further effect
- effect on JV after P38 MAPK inhibitor (hfRPE monolayers [1]): further decrease
- effect on JV after P38 MAPK inhibitor (hfRPE monolayers [1]; listed as CFTR inhibitor): further decreased
- decrease of the IFNγ-induced JV increase (hfRPE monolayers [1]; CFTRinh−172 5 μM basal bath, FIG. 14E): ≈ 9.8 μl·cm^−2·hr^−1
- mean JV after inhibitor in IFNγ-treated hfRPE (hfRPE monolayers [1]; CFTRinh−172 5 μM, 11 experiments, from 16.6±1.2): 6.8±1.0 μl·cm^−2·hr^−1
- JV after inhibitor in 24 hour IFNγ-treated hfRPE (hfRPE monolayers [1]; CFTRinh−172 5 μM, from 15.1, FIG. 14F): 4.8 μl·cm^−2·hr^−1
- decrease in JV (hfRPE monolayers [1]; CFTRinh−172 added after IFNγ and basal DIDS, n=1): 12.6 μl·cm^−2·hr^−1
- baseline JV after inhibitor (hfRPE monolayers [1]; CFTRinh−172 basal bath, no IFNγ, baseline 12.5 ±3.1, n=5): 3.2 ±1.0 μl·cm^−2·hr^−1
- Jv after CFTR inhibitor in 8-Br-cGMP-treated hfRPE (hfRPE monolayers [1]; FIG. 21, from 19.5): 11.5 μl·cm^−2·hr^−1
- Jv after CFTR inhibitor in 8-Br-cGMP-treated hfRPE (hfRPE monolayers [1]; four experiments, from 15.8±1.6): 8.9±1.3 μl·cm^−2·hr^−1

Compound: C[C@@H]1C[C@@H]([C@H](O)CC2CC(=O)NC(=O)C2)C(=O)[C@@H](C)C1 [CHX, cycloheximide]
- effect on IRF-2 protein (hfRPE cells; CHX 62 μM, with IFNγ): no effect
- effect on de novo synthesis of IRF-1 (hfRPE cells; CHX 62 μM, with IFNγ): completely blocked
- effect on STAT1 synthesis (hfRPE cells; cycloheximide with IFNγ): partly inhibited
- effect of CHX per se on JV (hfRPE monolayers [1]; 62 μM, apical and basal, 30 minutes): no apparent change
- IFNγ-induced JV increase after CHX pre-treatment (hfRPE monolayers [1]; 4 hours of pre-treatment with CHX): no IFNγ-induced JV increase
- effect on ability of CFTRinh−172 to block IFNγ-induced JV increase (hfRPE monolayers [1]; CHX 62 μM 30 minutes): did not affect
- effect on IFNγ-induced increase in JV (hfRPE monolayers [1]; CHX 62 μM 30 minutes before IFNγ 5 ng/ml): no effect
- JV after IFNγ and CHX (hfRPE monolayers [1]; IFNγ 5 ng/ml + CHX 62 μM, 24 hours, IFNγ alone 15.9, FIG. 14I): 8.8 μl·cm^−2·hr^−1
- JV after IFNγ and CHX (hfRPE monolayers [1]; another experiment, IFNγ alone 14.9): 9.8 μl·cm^−2·hr^−1

Compound: O=S(=O)(O)c1cc(N=C=S)ccc1C=Cc1ccc(N=C=S)cc1S(=O)(=O)O [DIDS]
- effect on spontaneous steady-state JV (hfRPE monolayers [1]; DIDS 500 μM, n=2): no effect
- effect on JV following CFTRinh−172 inhibition of IFNγ-induced JV (hfRPE monolayers [1]; DIDS, n=2): no further inhibition
- effect on IFNγ-induced JV increase (hfRPE monolayers [1]; basal DIDS): not affected
